Laboratory results: PMC8711653, “The Nature of Diamino Linker and Halogen Bonding Define Selectivity of Pyrrolopyrimidine-Based LIMK1 Inhibitors” (Frontiers in Chemistry, 2021)
Like-named read-outs stand apart in the source and are kept apart here. Each block holds one molecule with its values, some of them ahead of it.

Key:
[1] = molecular target: T1, LIMK1 (Homo sapiens, UniProt P53667); experiment: LIMK1 ADP-Glo kinase assay (Promega); format: biochemical; conditions: 0.1 μM compound
T1 construct: purchased Promega
T1 sequence (P53667 whole entry): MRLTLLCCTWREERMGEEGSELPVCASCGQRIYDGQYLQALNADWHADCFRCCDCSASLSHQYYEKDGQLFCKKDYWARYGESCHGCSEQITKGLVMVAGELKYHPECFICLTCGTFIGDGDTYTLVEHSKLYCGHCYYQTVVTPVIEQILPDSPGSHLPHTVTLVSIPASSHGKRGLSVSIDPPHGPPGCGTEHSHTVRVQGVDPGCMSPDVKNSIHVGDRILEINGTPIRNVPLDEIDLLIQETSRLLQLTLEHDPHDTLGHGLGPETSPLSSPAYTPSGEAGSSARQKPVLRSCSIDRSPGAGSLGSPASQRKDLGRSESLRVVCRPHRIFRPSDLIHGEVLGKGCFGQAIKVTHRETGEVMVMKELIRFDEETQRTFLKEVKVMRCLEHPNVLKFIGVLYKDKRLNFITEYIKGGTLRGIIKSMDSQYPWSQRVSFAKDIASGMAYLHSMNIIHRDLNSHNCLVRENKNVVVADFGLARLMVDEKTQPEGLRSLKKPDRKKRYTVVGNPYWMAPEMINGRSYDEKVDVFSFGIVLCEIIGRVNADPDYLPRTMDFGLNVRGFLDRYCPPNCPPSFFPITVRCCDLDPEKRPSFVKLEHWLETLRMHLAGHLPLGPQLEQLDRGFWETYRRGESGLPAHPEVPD
Procedure: ADP-Glo kinase assay was performed in 96-well plate format using the Promega kinase assay system. LIMK1 (0.1 μg) and compounds (0.1–100 μM) were dissolved in kinase reaction buffer and incubated for 30 min at rt. The reaction was then initiated by the addition of ATP (10 μM, 5 μl) and incubation for 30 min at 30°C. The reaction was then quenched with addition of 25 μl of ADP-Glo reagent. Kinase detection reagent (50 μl) was added and incubated for 30 min prior to luminescence reading on the BMG Labtech PHERAstar FS plate reader. Kinase assay is performed as duplicate.

[2] = molecular target: T2, LIMK2 (Homo sapiens, UniProt P53671); experiment: 33P-ATP radiotracer assay, LIMK2 (Reaction Biology Corporation); format: biochemical
T2 construct: purchased Reaction Biology Corporation
T2 sequence (P53671 whole entry): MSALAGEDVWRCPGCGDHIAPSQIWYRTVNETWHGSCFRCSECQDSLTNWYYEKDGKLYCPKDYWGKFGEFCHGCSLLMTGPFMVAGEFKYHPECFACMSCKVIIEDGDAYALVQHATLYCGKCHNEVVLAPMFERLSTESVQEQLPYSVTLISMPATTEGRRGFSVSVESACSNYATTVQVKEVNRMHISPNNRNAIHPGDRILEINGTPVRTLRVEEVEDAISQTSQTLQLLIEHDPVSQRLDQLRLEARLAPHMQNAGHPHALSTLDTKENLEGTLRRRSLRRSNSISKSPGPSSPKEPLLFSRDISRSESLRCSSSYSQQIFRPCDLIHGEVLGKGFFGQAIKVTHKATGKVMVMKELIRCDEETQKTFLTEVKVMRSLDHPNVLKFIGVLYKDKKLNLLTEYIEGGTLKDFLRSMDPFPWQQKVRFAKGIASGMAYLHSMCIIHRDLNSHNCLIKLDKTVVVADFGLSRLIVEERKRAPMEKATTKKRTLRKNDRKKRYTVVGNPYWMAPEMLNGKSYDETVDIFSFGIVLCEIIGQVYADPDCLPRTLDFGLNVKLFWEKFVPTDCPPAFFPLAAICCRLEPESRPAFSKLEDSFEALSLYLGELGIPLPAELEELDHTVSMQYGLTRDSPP
Procedure: (§1) To measure the selectivity against LIMK isoforms, the radiotracer assay measuring the transfer of ^33P from ATP to the substrate was used since there was no ADP-Glo™ kinase assay system available for LIMK2 (Table 2).
(§2) The radiotracer assay of LIMK1 and LIMK2 was performed by Reaction Biology Corporation. Compounds were tested in 10-dose IC50 mode with fivefold series dilution starting at 10 μM. Reactions were carried out at 10 μM ^33P-ATP, 1 μM cofilin substrate, and 50 nM LIMK1 (final concentration). Kinase activity is determined by the transfer or radioactive ^33P from ATP to cofilin substrate. Radiotracer assay is performed as triplicate.

[3] = molecular target: T1, LIMK1; experiment: 33P-ATP radiotracer assay, LIMK1 (Reaction Biology Corporation); format: biochemical; conditions: for IC50: 33P transfer from ATP to cofilin, 10 μM 33P-ATP, 1 μM cofilin, triplicate
Procedure: as §1, §2

[4] = test system: C6 cells; experiment: Scratch (wound closure) assay, cell migration velocity; format: cell-based; conditions: live imaging 24 h, compared to untreated cell
Procedure: Cofilin, the substrate for LIMK1, regulates the actin skeleton and thus regulates cell migration ([Bravo-Cordero et al., 2013]). To understand the inhibitory effect of compounds 1 and 22–26 in vitro, scratch assays were performed. The artificial wound was created by “scratching” in the middle of the well with confluent C6 cells in culture. Live imaging was captured for 24 h to measure the distance of cell migration (Figure 3; Supplementary video).
The velocity of cell migration is measured using the C6 cell line in the 24-well plate. Cells were seeded at 100,000 cells/well. After 24 h, cells were washed with warm PBS and treated with the inhibitors. Directly following the treatment, cells were moved into a preheated stage-top incubator maintained at 37°C/5% CO2, using the ZEISS Axio Observer live cell microscope, fitted with an Axiocam 702 mono camera. Cells were imaged once every 10 min using a ×10 objective with phase contrast for a 24-h period. Cell migration was analysed using Fiji ImageJ (NIH) and Chemotaxis Migration Tool (ibidi).

[5] = molecular target: T2, LIMK2; conditions: Figure 1A, known inhibitors, ref Harrison et al., 2009, Boland et al., 2015, Yin et al., Yi et al., 2017; cited from earlier work
[6] = molecular target: T1, LIMK1; conditions: Figure 1A, known inhibitors, ref Harrison et al., 2009, Boland et al., 2015, Yin et al., Yi et al., 2017; cited from earlier work
[7] = Promega ADP-Glo kinase assay, Table 1, read-out: % LIMK1 inhibition at 0.1 μM
[8] = Promega ADP-Glo kinase assay, Table 2, read-out: % LIMK1 inhibition at 0.1 μM
[9] = 33P transfer from ATP to cofilin, 10 μM 33P-ATP, 1 μM cofilin, triplicate
[10] = ADP-Glo assay, read-out: LIMK1 inhibitory activity at 0.1 μM
[11] = 33P radiotracer assay, top concentration 10 μM
[12] = Promega ADP-Glo kinase assay, Table 1, read-out: % LIMK1 inhibition at 0.1 μM (dash = no inhibition)

Structure (SMILES): Cc1c[nH]c2ncnc(N3CCN(C(=NC#N)Nc4cccc(I)c4)[C@@H](C)C3)c12 [Compound 22, (S)-N′-Cyano-N-(3-iodophenyl)-2-methyl-4-(5-methyl-7H-pyrrolo[2,3-d]pyrimidin-4-yl)piperazine-1-carboximidamide]
- inhibition at 0.1 µM [1, 8]: 95.5 ± 0.4%
- IC50 [2, 9]: 0.47 ± 0.01 nM
- IC50 [3]: 0.13 ± 0.01 nM
- melting point: 130 to 131 °C
- cell migration velocity [4]: lowered the migration even further

Structure (SMILES): Cc1c[nH]c2ncnc(NCCCNC(=NC#N)Nc3cccc(Cl)c3)c12 [Compound 11, 1-(3-Chlorophenyl)-2-cyano-3-(3-((5-methyl-7H-pyrrolo[2,3-d]pyrimidin-4-yl)amino)propyl)guanidine]
- inhibition at 0.1 µM [1, 7]: 15 ± 10.7%
- melting point: 88 to 90 °C

Structure (SMILES): Cc1c[nH]c2ncnc(NCCCCNC(=NC#N)Nc3cccc(Br)c3)c12 [Compound 15, 1-(3-Bromophenyl)-2-cyano-3-(4-((5-methyl-7H-pyrrolo[2,3-d]pyrimidin-4-yl)amino)butyl)guanidine]
- inhibition at 0.1 µM [1, 10]: 47%
- inhibition at 0.1 µM [1, 7]: 47.1 ± 1.6%
- melting point: 97 to 98 °C

Structure (SMILES): Cc1c[nH]c2ncnc(N[C@H]3CCCC[C@@H]3NC(=NC#N)Nc3cccc(Br)c3)c12 [Compound 25, 1-(3-Bromophenyl)-2-cyano-3-((1S,2S)-2-((5-methyl-7H-pyrrolo[2,3-d]pyrimidin-4-yl)amino)cyclohexyl)guanidine]
- inhibition at 0.1 µM [1, 8]: 96 ± 0.5%
- inhibition of LIMK2 (in words) ([2]; 33P radiotracer assay): no significant inhibition of LIMK2
- IC50 [2, 11]: > 10000 nM
- inhibition at 10 µM ([3]; 10 μM compound, 33P radiotracer assay): 47%
- melting point: 127 to 128 °C

Structure (SMILES): Cc1c[nH]c2ncnc(NCCNC(=NC#N)Nc3cccc(Br)c3)c12 [Compound 9, 1-(3-Bromophenyl)-2-cyano-3-(2-((5-methyl-7H-pyrrolo[2,3-d]pyrimidin-4-yl)amino)ethyl)guanidine]
- inhibition at 0.1 µM [1, 7]: 29.4 ± 10.3%
- melting point: 86 to 88 °C

Structure (SMILES): Cc1c[nH]c2ncnc(N[C@@H]3CCCC[C@H]3NC(=NC#N)Nc3cccc(I)c3)c12 [Compound 24, 2-Cyano-1-(3-iodophenyl)-3-((1R,2R)-2-((5-methyl-7H-pyrrolo[2,3-d]pyrimidin-4-yl)amino)cyclohexyl)guanidine]
- inhibition at 0.1 µM [1, 8]: 93.2 ± 1.2%
- IC50 [2, 9]: 3380 nM
- IC50 [3]: 5080 nM
- melting point: 128 to 129 °C

Structure (SMILES): Cc1c[nH]c2ncnc(N3CCN(/C(=N/C#N)Nc4cccc(Br)c4)[C@@H](C)C3)c12 [Compound 1, reference compound]
- inhibition at 0.1 µM [1, 7]: 94.3 ± 0.2%
- IC50 [2, 9]: 0.86 ± 0.05 nM
- IC50 [3]: 0.28 ± 0.01 nM
- cell migration velocity [4]: reduced the cell velocity by twofold

Structure (SMILES): Cc1c[nH]c2ncnc(NCCCNC(=NC#N)Nc3cccc(Br)c3)c12 [Compound 12, 1-(3-Bromophenyl)-2-cyano-3-(3-((5-methyl-7H-pyrrolo[2,3-d]pyrimidin-4-yl)amino)propyl)guanidine]
- LIMK1 inhibitory activity at 0.1 μM (in words) ([1]; ADP-Glo assay): abolished the inhibitory activity
- inhibition at 0.1 µM [1, 12]: < 0%
- melting point: 88 to 89 °C

Structure (SMILES): Cc1c[nH]c2ncnc(N[C@H]3CC[C@H](NC(=NC#N)Nc4cccc(Cl)c4)CC3)c12 [Compound 17, 1-(3-Chlorophenyl)-2-cyano-3-((1r,4r)-4-((5-methyl-7H-pyrrolo[2,3-d]pyrimidin-4-yl)amino)cyclohexyl)guanidine]
- inhibition at 0.1 µM [1, 10]: 42%
- inhibition at 0.1 µM [1, 7]: 41.7 ± 0.1%
- melting point: 120 to 122 °C

Structure (SMILES): Cc1c[nH]c2ncnc(N[C@H]3CCCC[C@@H]3NC(=NC#N)Nc3cccc(I)c3)c12 [Compound 26, 2-Cyano-1-(3-iodophenyl)-3-((1S,2S)-2-((5-methyl-7H-pyrrolo[2,3-d]pyrimidin-4-yl)amino)cyclohexyl)guanidine]
- inhibition at 0.1 µM [1, 8]: 94.9 ± 0.8%
- inhibition of LIMK2 (in words) ([2]; 33P radiotracer assay): no significant inhibition of LIMK2
- IC50 [2, 11]: > 10000 nM
- IC50 [3]: 8360 nM
- melting point: 128 to 129 °C

Structure (SMILES): Cc1c[nH]c2ncnc(NCCNC(=NC#N)Nc3cccc(Cl)c3)c12 [Compound 8, 1-(3-Chlorophenyl)-2-cyano-3-(2-((5-methyl-7H-pyrrolo[2,3-d]pyrimidin-4-yl)amino)ethyl)guanidine]
- LIMK1 inhibitory activity at 0.1 μM (in words) ([1]; ADP-Glo assay): completely abolished inhibitory activity
- inhibition at 0.1 µM [1, 12]: < 0%
- melting point: 87 to 88 °C

Structure (SMILES): CN(C)C(=O)Oc1cccc(NC(=O)C2(CN)CCN(c3ncnc4[nH]cc(Cl)c34)CC2)c1 [Compound 4]
- IC50 [5]: 1.6 nM
- IC50 [6]: 24 nM

Continued, values first:

- inhibition at 0.1 µM [1, 7]: 17.8 ± 7.1%
- melting point: 91 to 93 °C
Structure (SMILES): Cc1c[nH]c2ncnc(NCCCNC(=NC#N)Nc3cccc(I)c3)c12 [Compound 13, 2-Cyano-1-(3-iodophenyl)-3-(3-((5-methyl-7H-pyrrolo[2,3-d]pyrimidin-4-yl)amino)propyl)guanidine]

- inhibition at 0.1 µM [1, 8]: 96.7 ± 0.1%
- IC50 [2, 9]: 2650 nM
- IC50 [3]: 2830 nM
- melting point: 127 to 128 °C
Structure (SMILES): Cc1c[nH]c2ncnc(N[C@@H]3CCCC[C@H]3NC(=NC#N)Nc3cccc(Br)c3)c12 [Compound 23, 1-(3-Bromophenyl)-2-cyano-3-((1R,2R)-2-((5-methyl-7H-pyrrolo[2,3-d]pyrimidin-4-yl)amino)cyclohexyl)guanidine]

- inhibition at 0.1 µM [1, 7]: 17.8 ± 7.1%
- melting point: 88 to 89 °C
Structure (SMILES): Cc1c[nH]c2ncnc(NCCNC(=NC#N)Nc3cccc(I)c3)c12 [Compound 10, 2-Cyano-1-(3-iodophenyl)-3-(2-((5-methyl-7H-pyrrolo[2,3-d]pyrimidin-4-yl)amino)ethyl)guanidine]

- inhibition at 0.1 µM [1, 7]: 66.6 ± 8.8%
- melting point: 129 to 130 °C
Structure (SMILES): Cc1c[nH]c2ncnc(N[C@H]3CC[C@H](NC(=NC#N)Nc4cccc(I)c4)CC3)c12 [Compound 19, 2-Cyano-1-(3-iodophenyl)-3-((1r,4r)-4-((5-methyl-7H-pyrrolo[2,3-d]pyrimidin-4-yl)amino)cyclohexyl)guanidine]

- inhibition at 0.1 µM [1, 7]: 41 ± 2.5%
- melting point: 90 to 91 °C
Structure (SMILES): Cc1c[nH]c2ncnc(NCCCCNC(=NC#N)Nc3cccc(I)c3)c12 [Compound 16, 2-Cyano-1-(3-iodophenyl)-3-(4-((5-methyl-7H-pyrrolo[2,3-d]pyrimidin-4-yl)amino)butyl)guanidine]

- LIMK1 inhibitory activity at 0.1 μM (in words) ([1]; ADP-Glo assay): completely abolished inhibitory activity
- inhibition at 0.1 µM [1, 12]: < 0%
- melting point: 90 to 91 °C
Structure (SMILES): Cc1c[nH]c2ncnc(NCCCCNC(=NC#N)Nc3cccc(Cl)c3)c12 [Compound 14, 1-(3-Chlorophenyl)-2-cyano-3-(4-((5-methyl-7H-pyrrolo[2,3-d]pyrimidin-4-yl)amino)butyl)guanidine]

- inhibition at 0.1 µM [1, 10]: 69%
- inhibition at 0.1 µM [1, 7]: 69.2 ± 1.7%
- melting point: 127 to 128 °C
Structure (SMILES): Cc1c[nH]c2ncnc(N[C@H]3CC[C@H](NC(=NC#N)Nc4cccc(Br)c4)CC3)c12 [Compound 18, 1-(3-Bromophenyl)-2-cyano-3-((1r,4r)-4-((5-methyl-7H-pyrrolo[2,3-d]pyrimidin-4-yl)amino)cyclohexyl)guanidine]
